Laboratory results taken from PMC8167858, “Crystal structure of a novel homodimeric L‐ribulose 3‐epimerase from Methylomonus sp” (FEBS Open Bio, 2021).

Assays:
his_MetLRE = molecular target: T1, his_MetLRE (Methylomonas sp. DH-1, UniProt A0A172U6X0); assay: X-ray crystal structure, […] Å; type: binding; settings: 0.1 M HEPES pH 7.5, PEG 8000, 8% ethylene glycol
T1 construct: gene AYM39_05640; full length 286 aa, N-terminal His-tag from pET15b (kept), E. coli BL21(DE3), homodimer
T1 sequence (A0A172U6X0 1-286): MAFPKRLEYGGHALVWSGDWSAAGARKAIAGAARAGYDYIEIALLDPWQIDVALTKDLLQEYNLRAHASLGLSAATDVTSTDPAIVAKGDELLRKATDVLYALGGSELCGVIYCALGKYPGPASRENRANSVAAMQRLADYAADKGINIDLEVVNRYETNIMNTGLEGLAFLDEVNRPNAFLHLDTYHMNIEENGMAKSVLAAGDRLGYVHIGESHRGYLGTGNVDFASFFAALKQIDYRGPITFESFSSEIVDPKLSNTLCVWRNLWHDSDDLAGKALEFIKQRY

MetLRE (MetLRE_his) [1] = molecular target: T2, MetLRE (MetLRE_his) (Methylomonas sp. DH-1, UniProt A0A172U6X0); assay: thermal shift assay (SYPRO Orange); type: binding; settings: melting temperature, not a shift: reference with Mn alone Tm1_Mn 72.5 ± 0.03 °C; 4 mM D-allulose, 0.8 mM MnCl2, 40 mM Tris/HCl pH 7.6; two-step unfolding, first transition
T2 construct: gene AYM39_05640
T2 sequence (A0A172U6X0 1-286): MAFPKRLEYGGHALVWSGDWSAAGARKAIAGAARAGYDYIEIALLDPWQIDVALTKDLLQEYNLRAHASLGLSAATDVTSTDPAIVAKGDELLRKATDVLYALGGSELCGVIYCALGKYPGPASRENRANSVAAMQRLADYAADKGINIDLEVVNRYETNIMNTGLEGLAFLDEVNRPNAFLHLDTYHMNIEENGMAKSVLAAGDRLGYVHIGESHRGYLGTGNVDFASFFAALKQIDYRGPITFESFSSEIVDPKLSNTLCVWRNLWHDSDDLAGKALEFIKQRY
Source text: thermal shift assay (SYPRO Orange) on MetLRE (MetLRE_his) | in the presence of Mn and D‐allulose (cyan line)

MetLRE (MetLRE_his) [2] = molecular target: T2, MetLRE (MetLRE_his); assay: X-ray crystal structure, […] Å; type: binding; settings: crystal soaked in 15% (w/v) D-fructose; catalytic site with Mn2+; second site: beta-D-fructopyranose on surface near C terminus of Mol-A
his_MetLRElong2 = molecular target: T3, his_MetLRElong2 (Methylomonas sp. DH-1, UniProt A0A172U6X0, Y9I/Y37F/INS286TAIKTIELH/Y286L, form not given); assay: X-ray crystal structure, […] Å; type: binding; settings: 0.1 M HEPES pH 7.5, PEG 8000, 8% ethylene glycol
T3 construct: gene AYM39_05640; full length with Y9I, Y37F, Y286L and nine extra residues TAIKTIELH added after residue 286 at the C terminus; N-terminal His-tag from pET15b (kept), E. coli BL21(DE3), homodimer

MetLRE (MetLRE_his) [3] = molecular target: T2, MetLRE (MetLRE_his); assay: X-ray crystal structure, […] Å; type: binding
[4] = substrate: O=C(CO)[C@@H](O)[C@@H](O)CO; assay: epimerization, product by HPLC; type: biochemical, Methylomonas sp. DH-1; settings: 50 mM Tris/HCl pH 7.5, 1 mM MnCl2, 70 °C (conditions of the specificity assay)
[5] = molecular target: the molecule itself; assay: crystal structure; MetLRE_his crystals, alone and soaked with D-fructose, D-allulose or L-tagatose; reservoir 0.2 M MgCl2, 0.1 M Tris/HCl pH 8.5, 25% PEG3350, 293 K; two molecules in an asymmetric unit
[6] = molecular target: the molecule itself; assay: crystal structure; his_MetLRE (with D-allulose) and his_MetLRElong2 (with D-fructose); reservoir 0.1 M HEPES pH 7.5, 10% PEG 8000, 8% ethylene glycol; space group P1, six and eight molecules in an asymmetric unit; symmetry operation and PISA analysis

What does the source list for `OCC1(O)OC[C@@H](O)[C@@H](O)[C@H]1O` (stereo partly drawn) [D-allulose]?
X-ray crystal structure, 2.05 Å (his_MetLRE): His_MetLRE in complex with D‐allulose was obtained in the triclinic space group P1; Tm1_MnA (MetLRE (MetLRE_his) [1]): 78.5 ± 0.1 °C

How did the “X-ray crystal structure, 1.80 Å” value (MetLRE (MetLRE_his) [2]) turn out when `OCC1(O)OC[C@@H](O)[C@@H](O)[C@@H]1O` (stereo partly drawn) [D-fructose] was run?
Its value is “MetLRE_his in complex with D‐fructose was crystallized in the orthorhombic space group”.

And the “X-ray crystal structure, 1.58 Å” value (his_MetLRElong2)?
The value was “the crystal structure of his_MetLRElong2 in complex with D‐fructose was determined”.

How did the “X-ray crystal structure, 1.70 Å” value (MetLRE (MetLRE_his) [3]; formed from soaked L-tagatose in crystal, catalytic site of Mol-A with Mn2+) turn out when `OCC1(O)OC[C@H](O)[C@@H](O)[C@@H]1O` (stereo partly drawn) [L-sorbose] was run?
Its value is “L‐sorbose (C3 epimer of L‐tagatose) was bound in the catalytic site”.

How did the “X-ray crystal structure, 1.70 Å” value (MetLRE (MetLRE_his) [3]; crystal soaked in 15% (w/v) L-tagatose, catalytic site of Mol-B with Mn2+, second site: alpha-L-tagatopyranose on surface of Mol-B) turn out when `OCC1(O)OC[C@H](O)[C@@H](O)[C@H]1O` (stereo partly drawn) [L-tagatose] was run?
The value was “The bound L‐tagatose was found in the catalytic site of Mol‐B”.

B1: MetLRE (MetLRE_his) (Methylomonas sp. DH-1) (protein)
chain: MAFPKRLEYGGHALVWSGDWSAAGARKAIAGAARAGYDYIEIALLDPWQIDVALTKDLLQEYNLRAHASLGLSAATDVTSTDPAIVAKGDELLRKATDVLYALGGSELCGVIYCALGKYPGPASRENRANSVAAMQRLADYAADKGINIDLEVVNRYETNIMNTGLEGLAFLDEVNRPNAFLHLDTYHMNIEENGMAKSVLAAGDRLGYVHIGESHRGYLGTGNVDFASFFAALKQIDYRGPITFESFSSEIVDPKLSNTLCVWRNLWHDSDDLAGKALEFIKQRY
Which results are given for B1?
Km [4]: 22.4 ± 3.4 mM; kcat [4]: 82.05 ± 5.77 s⁻¹

B2: C-terminal His-tagged L-ribulose 3-epimerase from Methylomonas sp. DH-1 (MetLRE_his) (enzyme, UniProt A0A172U6X0 1-286, looked up)
chain: MAFPKRLEYGGHALVWSGDWSAAGARKAIAGAARAGYDYIEIALLDPWQIDVALTKDLLQEYNLRAHASLGLSAATDVTSTDPAIVAKGDELLRKATDVLYALGGSELCGVIYCALGKYPGPASRENRANSVAAMQRLADYAADKGINIDLEVVNRYETNIMNTGLEGLAFLDEVNRPNAFLHLDTYHMNIEENGMAKSVLAAGDRLGYVHIGESHRGYLGTGNVDFASFFAALKQIDYRGPITFESFSSEIVDPKLSNTLCVWRNLWHDSDDLAGKALEFIKQRY
notes: L-ribulose 3-epimerase (putative sugar isomerase/epimerase) from Methylomonas sp; DH-1, NCBI WP_064020855.1, 286 a.a; synthesized gene amplified from the start codon to the last codon (Y286), then a linker beginning at Gly287 and the His tag; Linker and tag follow Y286: Gly287 and Ser288 are in the linker; also called putative sugar isomerase/epimerase; source: E. coli JM109 (pQE60, plasmid …)
How did the “stoichiometry N” value [5] turn out when B2 was run?
The value was 2.

B3: N-terminal His-tagged L-ribulose 3-epimerase from Methylomonas sp. DH-1 (his_MetLRE) (enzyme, UniProt A0A172U6X0 1-286, looked up)
chain: MAFPKRLEYGGHALVWSGDWSAAGARKAIAGAARAGYDYIEIALLDPWQIDVALTKDLLQEYNLRAHASLGLSAATDVTSTDPAIVAKGDELLRKATDVLYALGGSELCGVIYCALGKYPGPASRENRANSVAAMQRLADYAADKGINIDLEVVNRYETNIMNTGLEGLAFLDEVNRPNAFLHLDTYHMNIEENGMAKSVLAAGDRLGYVHIGESHRGYLGTGNVDFASFFAALKQIDYRGPITFESFSSEIVDPKLSNTLCVWRNLWHDSDDLAGKALEFIKQRY
notes: L-ribulose 3-epimerase from Methylomonas sp; DH-1, NCBI WP_064020855.1, 286 a.a; primers from the start codon to the stop codon; N-terminal tag and additional residues come from pET15b; source: E. coli BL21(DE3) (pET15b, plasmid pETMetLRE), purified (HisTrap HP); not shown: His tag, N-terminal, kept
How did the “stoichiometry N” value [6] turn out when B3 was run?
Its value is 2.

B4: N-terminal His-tagged MetLRElong2 (his_MetLRE with nine additional residues TAIKTIELH at the C terminus and three mutations Y9I, Y37F, Y286L) (enzyme, Methylomonas sp. DH-1)
chain: MAFPKRLEIGGHALVWSGDWSAAGARKAIAGAARAGFDYIEIALLDPWQIDVALTKDLLQEYNLRAHASLGLSAATDVTSTDPAIVAKGDELLRKATDVLYALGGSELCGVIYCALGKYPGPASRENRANSVAAMQRLADYAADKGINIDLEVVNRYETNIMNTGLEGLAFLDEVNRPNAFLHLDTYHMNIEENGMAKSVLAAGDRLGYVHIGESHRGYLGTGNVDFASFFAALKQIDYRGPITFESFSSEIVDPKLSNTLCVWRNLWHDSDDLAGKALEFIKQRLTAIKTIELH
notes: L-ribulose 3-epimerase from Methylomonas sp; DH-1, NCBI WP_064020855.1, 286 a.a., with three mutations; nine additional residues at the C terminus, chosen on the tetramer form of AgDAE; source: E. coli BL21(DE3) (pET15b, plasmid pETMetLRElong2), purified (HisTrap HP); not shown: His tag, N-terminal, kept
With B4 as the molecule, how does the “stoichiometry N” value [6] read?
The value was 2.
